Experimental data reported in PubChem BioAssay (NCI).
Values joined by “and” are separate entries in the source; they are usually repeats but may differ in a detail not shown here. Identical values can stand only once.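 Each compound was tested at five concentrations against cells in 96-well plates for 48 hours. Here, GI50 denotes the concentration required for 50% inhibition of growth. Definition used: TGI = concentration required for complete inhibition of growth.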

Experiments:
Experiment in all cases: NCI anticancer screen, dose series, 48 h
DMS 114 small cell lung = system: DMS 114 small cell lung
XF 498 CNS = system: XF 498 CNS
SNB-78 CNS = system: SNB-78 CNS
HOP-18 NSCLC = system: HOP-18 NSCLC
M19-MEL melanoma = system: M19-MEL melanoma
DMS 273 small cell lung = system: DMS 273 small cell lung
MDA-N = system: MDA-N
LXFL 529 NSCLC = system: LXFL 529 NSCLC
RXF-631 renal = system: RXF-631 renal

Row | Structure (SMILES) | TGI (DMS 114 small cell lung) | TGI (XF 498 CNS) | TGI (SNB-78 CNS) | TGI (HOP-18 NSCLC) | TGI (M19-MEL melanoma) | TGI (DMS 273 small cell lung) | TGI (MDA-N) | TGI (LXFL 529 NSCLC) | TGI (RXF-631 renal) | GI50 (M19-MEL melanoma) | GI50 (XF 498 CNS) | GI50 (LXFL 529 NSCLC) | GI50 (DMS 273 small cell lung)
1 | COc1cccc(C=O)c1C(=O)c1cc(O)ccc1O | > 48.2 µM | > 100 µM | > 60.8 µM | 76.5 µM | 79.8 µM | > 100 µM |  |  |  |  |  |  | 
2 | CC#C[C@]1(O)CCC2[C@@H]3CCC4=CC(=O)CCC4=C3[C@@H](c3ccc(N(C)C)cc3)C[C@@]21C (stereo partly drawn) |  |  |  |  |  |  | 49.3 µM |  |  |  |  |  | 
3 | COc1ccc(Nc2nc3cc(C(F)(F)F)ccc3nc2-c2ccccc2)cc1OC | 41.4 µM | 11.2 µM | 66.7 µM |  |  | 21.8 µM |  | > 100 µM |  |  |  |  | 
4 | NC1N=Nc2ccccc21 (stereo not drawn) | > 100 µM | > 100 µM |  |  | > 100 µM | > 100 µM |  | > 100 µM | > 100 µM |  |  |  | 
5 | COc1cccc2c1OC1Sc3ccccc3-c3nn(-c4ccccc4)c-2c31 (stereo not drawn) | > 100 µM | > 100 µM | > 100 µM | > 100 µM | > 100 µM | > 100 µM |  | > 100 µM | > 100 µM |  |  |  | 
6 | O=C(C=Nc1ccccc1C(=O)[O-])c1cccs1.O=C(C=Nc1ccccc1C(=O)[O-])c1cccs1.[Ni+2] |  |  |  |  | > 100 µM |  |  |  |  | 31.1 µM |  |  | 
7 | O=[N+]([O-])c1cc(-c2nc(=S)[nH][nH]2)ccc1O | 86.8 µM |  | > 100 µM |  | > 100 µM | > 100 µM |  | > 100 µM | > 100 µM |  |  |  | 
8 | N/C=N/S(=O)(=O)c1ccc(NC(=O)COC(=O)c2cccc3c(=O)c4ccccc4[nH]c23)cc1 | > 100 µM | > 100 µM |  | > 100 µM | > 100 µM | > 100 µM |  |  |  |  |  |  | 
9 | O=Cc1cccc2ccc3ccccc3c12 |  |  |  |  |  |  | 73.2 µM |  |  |  |  |  | 
10 | O=C(CN1CCCC1=O)CS(=O)(=O)c1ccccc1 |  |  |  |  |  |  | > 100 µM |  |  |  |  |  | 
11 | N#CCCN(CCC#N)c1ccc(/C=C(/NC(=O)c2cc([N+](=O)[O-])ccc2Cl)C(=O)NN)cc1 |  |  | > 100 µM | > 100 µM | > 100 µM | > 100 µM |  | > 100 µM |  |  |  |  | 
12 | Nc1nc(N)c(CCCCc2ccccc2)c(C=O)n1 | 34.4 µM |  | 81.6 µM | 89.2 µM | 29.5 µM | 39.1 µM |  |  | > 100 µM |  |  |  | 
13 | COc1ccc2c(c1)Oc1cc(O)ccc1[C@H]2c1ccccc1C(=O)NC(C)c1ccccc1 (stereo partly drawn) | 24.9 µM |  | 33.5 µM |  | 29.4 µM | 28.4 µM |  | 28.7 µM |  |  |  |  | 
14 | COC(=O)C12CCC(C)(C)CC1C1=CCC3C4(C)CC(O)C(O)C(C)(C(=O)OC)C4CCC3(C)C1(CO)CC2 (stereo not drawn) |  |  |  |  |  |  | 26.3 µM |  |  |  |  |  | 
15 | CC(=O)c1ccccc1NC(=O)C(=O)C(C(=O)c1ccc2ccccc2c1)C1OC(=O)c2ccccc21 (stereo not drawn) | 43 µM | 18.1 µM | 84.8 µM | 38.7 µM | 22.8 µM | 44.5 µM |  | 26.3 µM |  |  |  |  | 
16 | COc1cc2c(cc1OC)C(C#N)N(C(=O)c1ccccc1)C=C2OC(=O)c1ccccc1 (stereo not drawn) | 89.2 µM | 47.7 µM | 76.6 µM | 46.6 µM | 90.5 µM | 45.4 µM |  | 42.5 µM |  |  |  |  | 
17 | O=C(Cc1ccccc1[N+](=O)[O-])C(CO)c1ccccc1[N+](=O)[O-] (stereo not drawn) | > 100 µM | > 100 µM | > 100 µM | > 100 µM | > 100 µM | > 100 µM |  | > 100 µM |  |  |  |  | 
18 | c1ccc2c(c1)SC(=C1Sc3ccccc3S1)S2 | > 100 µM | > 100 µM | > 100 µM | > 100 µM | > 100 µM | > 100 µM |  | > 100 µM | > 100 µM |  |  |  | 
19 | C/C(=N\NC(=S)N1CCN(c2ccccn2)CC1)c1ccccn1 | 0.335 µM and 0.103 µM |  | 21.5 µM |  | 2.94 µM | 15 µM | 13.3 µM | 14.2 µM |  |  | 23.6 nM |  | 
20 | Cc1cc(=O)[nH]c(CNC(=O)c2ccc3ccccc3c2)n1 | > 100 µM | > 100 µM |  | > 100 µM | > 100 µM | > 100 µM |  | > 100 µM | > 100 µM |  |  |  | 
21 | OCC1OC2c3ccccc3COC2C1OCc1ccccc1 (stereo not drawn) | > 100 µM | > 100 µM | > 100 µM | > 100 µM | > 100 µM |  |  | > 100 µM | > 100 µM |  |  |  | 

Row | Structure (SMILES) | TGI (DMS 114 small cell lung) | TGI (XF 498 CNS) | TGI (SNB-78 CNS) | TGI (HOP-18 NSCLC) | TGI (M19-MEL melanoma) | TGI (DMS 273 small cell lung) | TGI (MDA-N) | TGI (LXFL 529 NSCLC) | TGI (RXF-631 renal) | GI50 (M19-MEL melanoma) | GI50 (XF 498 CNS) | GI50 (LXFL 529 NSCLC) | GI50 (DMS 273 small cell lung)
22 | N#CC1C[C@@H]2CC3(CCC2CN1C(=O)c1ccccc1)OCCO3 (stereo partly drawn) | > 100 µM | > 100 µM | > 100 µM | > 100 µM | > 100 µM | > 100 µM |  | > 100 µM |  |  |  |  | 
23 | CCC12CCCN(Cc3ccccc3)C1c1c(n(C)c3ccccc13)C(CO)C2 (stereo not drawn) | 84.5 µM | 79.7 µM |  |  | 125 µM | 89.7 µM |  | 87.4 µM | 142 µM |  |  |  | 
24 | [O-]/N=[N+](/[O-])C1CCCCC1=[N+]1CCOCC1 (stereo not drawn) | > 100 µM | > 100 µM | > 100 µM |  | > 100 µM |  |  | > 100 µM |  |  |  |  | 
25 | COC(=O)[C@H](CC(C)C)NC(=O)[C@H](Cc1ccccc1)N1CC2C=CC1C2 (stereo partly drawn) | > 100 µM | > 100 µM |  | > 100 µM | > 100 µM | > 100 µM |  | > 100 µM |  |  |  |  | 
26 | CN1C(=O)CC2(C)c3cc(O)cc(Br)c3N(C)C12 (stereo not drawn) | > 100 µM | > 100 µM | > 100 µM | > 100 µM | > 100 µM |  |  | > 100 µM |  |  |  |  | 
27 | N#CC(C#N)=NNc1ccc2cn[nH]c2c1 |  |  |  |  |  |  | > 100 µM |  |  |  |  |  | 
28 | CC1(C)NC(=O)N(CCCCCCN2C(=O)NC(C)(C)C2=O)C1=O | > 100 µM |  | > 100 µM | > 100 µM | > 100 µM | > 100 µM |  | > 100 µM |  |  |  |  | 
29 | C/C(CCn1[nH]c(=O)ccc1=O)=N\NC(=O)C(N)=O | > 100 µM | > 100 µM | > 100 µM | > 100 µM | > 100 µM | > 100 µM |  | > 100 µM |  |  |  |  | 
30 | CCc1ccccc1NC(=O)C(=O)C(C#N)c1ccccc1Cl (stereo not drawn) | > 100 µM | > 100 µM | > 100 µM | > 100 µM | > 100 µM |  |  | > 100 µM | > 100 µM |  |  |  | 
31 | COC(=O)C1=COC2OC3C(C(C)O)C(=O)OC34C=CC1C24 (stereo not drawn) |  |  |  |  |  |  | > 100 µM |  |  |  |  |  | 
32 | N#CC(C#N)=CNCCN1CCN(C=C(C#N)C#N)CC1 |  |  |  |  |  |  | > 100 µM |  |  |  |  |  | 
33 | O=C(O)CCCCn1ccc(=O)[nH]c1=O |  |  |  |  |  |  | > 100 µM |  |  |  |  |  | 
34 | CC(C)(C)N/N=C(\C(=O)Nc1cccc(Cl)c1)C1C(=O)Nc2ccccc2S1=O (stereo not drawn) | > 100 µM | > 100 µM |  | > 100 µM | > 100 µM | > 100 µM |  | > 100 µM | > 100 µM |  |  |  | 
35 | CC1CCCC(C(=O)CC2CC(=O)NC(=O)C2)C1=O (stereo not drawn) |  |  |  |  |  |  | > 100 µM |  |  |  |  |  | 
36 | O=C(Cc1nc2ccc(C(=O)c3ccccc3)cc2[nH]c1=O)C(=O)Nc1nc2ccccc2[nH]1 | 79.4 µM |  |  | > 100 µM | > 100 µM | > 100 µM |  | > 100 µM | > 100 µM |  |  |  | 
37 | O=C(O)CN(c1ccccc1)S(=O)(=O)c1cccc([N+](=O)[O-])c1 |  | > 100 µM |  | > 100 µM | > 100 µM | > 100 µM |  | > 100 µM |  |  |  |  | 
38 | ClCCCSSCCCCl |  |  |  |  |  |  | 49.7 µM |  |  |  |  |  | 
39 | O=C1C(=c2ccc(=C3C(=O)c4ccc([N+](=O)[O-])cc4[N+]3=O)cc2)N([O-])c2cc([N+](=O)[O-])ccc21 |  |  | > 100 µM | > 100 µM | > 100 µM | > 100 µM |  | > 100 µM |  | > 100 µM |  | > 100 µM | > 100 µM
40 | COc1cc2c(NCCCCCO)ncnc2c(OC)c1OC |  |  |  |  |  |  | > 100 µM |  |  |  |  |  | 
41 | COC(=O)Oc1nn(C(=O)OC)c(=O)c2ccccc12 |  |  |  |  |  |  | > 100 µM |  |  |  |  |  | 
42 | Fc1cc(F)c(F)c(S)c1F |  |  |  |  |  |  | > 100 µM |  |  |  |  |  | 
